The results in this text go back to patent US10900069B2, “Devices and methods useful for detecting mechanical forces of ligand receptor interactions” (Emory University, priority 2016, dated 2021).

The test system of one experiment is NIH/3T3 cells. The experiment is described as follows: Brightfield imaging and F-actin staining of drug treated cells. Type of experiment: cell-based.
Experiment [1] relates to integrin mediated tension in NIH/3T3 cells. The experiment is described as follows: Dose-dependent inhibition of integrin mediated tension quantified by MCR. Type of experiment: cell-based. The conditions noted are these: NIH/3T3 cells pretreated 15 min with blebbistatin (10 nm-10 mm as printed), 1 h on 12 pN duplexes. How it is done: The non-muscle myosin II inhibitor blebbistatin, which diminishes myosin contractility and thus reduces forces transmitted by focal adhesions, was investigated. NIH/3T3 cells were pretreated with a range of blebbistatin concentrations (10 nm-[…]) for 15 min. The cells onto the surface were incubated with the 12 pN duplexes for 1 h, which was then followed by MCR readout. […] The MCR signal is a direct readout of integrin tension, measuring the dose-dependent dissipation of actomyosin contractile forces.
Cells were incubated with the cRGDfK-labelled duplex surfaces in DMEM for 1 h to promote cell adhesion. Surfaces were then washed with 0.1×SSC. Subsequently, surfaces were incubated in 1× CutSmart® buffer (20 mM Tris-acetate, 10 mM Mg(OAc)2, 50 mM KOAc, 100 μg/mL BSA, pH 7.9) with 100 nM circular template and 1 U/μL T4 ligase at 37° C. for 2 h to ensure complete ligation. Then, 250 μM dNTPs and 0.1 U/μL Phi 29 polymerase were added to the solutions and mixed well. The surfaces were incubated at 37° C. for 90 min to allow for rolling circle amplification. […] Finally, the surface was incubated with 100 nM Cy3B-FISH probe in hybridization buffer (0.5 M NaCl, 20 mM Tris-HCl, 20 mM EDTA, and 0.01% Tween, pH=7.4) at 37° C. for 30 min, rinsed with three washes of 0.1×TNT/0.1% SDS and subjected to fluorescence imaging. […]

For `Cc1ccc2c(c1)C(=O)C1(O)CCN(c3ccccc3)C1=N2` (stereo not drawn) [blebbistatin], the F-actin staining result with NIH/3T3 cells (highest blebbistatin doses) is “more disorganized and shorter actin filaments”. For the same molecule, in the experiment with NIH/3T3 cells (increasing drug dose), the “cell shape by brightfield imaging” value is on record as “cells become more rounded with increasing drug dose”. Moreover, the MCR signal entry in experiment [1] is reported as “dose-dependent relationship”.
